Measured values reported in patent US20160213635A1, “COMPOSITIONS USEFUL IN THE PREVENTION OR TREATMENT OF SKIN CANCER” (GIULIANI S.P.A., priority 2013, published 2016).

Key:
[1] = test system: primary cultures of human keratinocytes, NHKs; assay: Cell viability after treatment with G01; assay type: cell-based; settings: eight different concentrations, 48±2 h, three NHKs cultures
Protocol: The study is performed on primary cultures of human keratinocytes, NHKs. The cells (three different cultures of keratinocytesNHKs) were plated in the specific culture medium and maintained in culture for 24±2 h to allow adhesion to the plate. The cells were treated with eight different concentrations of the compound of the invention […] under evaluation, diluted in the culture medium, for 48±2 h. The values of cell viability for each concentration tested, resulting from the spectrophotometric reading, were compared with the value obtained from the control.

NHKs cells [2] = assay: Western Blot assessment (non-cleaved caspase 3) of UV induced apoptosis after pre-treatment with G01; assay type: cell-based, human; settings: pre-treatment 90 μM 24±2 h; UVA 25 J/cm^2, UVB 80 mJ/cm^2; 24 h
Protocol: The NHKs cells were plated in the specific culture medium and maintained in culture for 24±2 h to allow adhesion to the plate. Each experimental condition was plated in duplicate. The cells were treated for 24±2 h with the compound G01, in a concentration of 90 μM. Subsequently, the cells identified as +UVA, +G01/UVA, +UVB, and +G01/UVB were respectively exposed, in the irradiation medium, to doses of UVA of 25 J/cm^2 and UVB of 80 mJ/cm^2, while the control plates and those treated only with G01 were maintained in the dark and at room temperature for a period of time equal to the irradiation time. The irradiation medium was then replaced with the culture medium. Based on the preliminary results obtained on a broader time range, a post-treatment time of 24 h was selected, after which the plates were processed for Western Blot protein determination. The protein expression of non-cleaved caspase 3 in each condition tested (treatment with G01 and/or UVA/UVB irradiation) was compared with the expression in the control cells (Ctr).

[3] = test system: primary cultures of human keratinocytes, NHKs; assay: Cell viability (incorporation of NR) after UV irradiation and subsequent treatment with G01; assay type: cell-based; settings: post-treatment; UVA 10 J/cm^2, UVB 25 mJ/cm^2; particularly 48 h after irradiation; highest concentration tested 90 μM
Protocol: The cells were plated in the specific culture medium and maintained in culture for 24±2 h to allow adhesion to the plate. The cells in the plates identified as +UVA and +UVB were respectively exposed, in the irradiation medium, to doses of UVA of 10 J/cm^2 and UVB of 25 mJ/cm^2, while the control plate (Ctr) was maintained in the dark and at room temperature for a period of time equal to the irradiation time. The irradiation medium was then replaced with the culture medium, containing the compound G01 in concentrations selected based on the cell viability results obtained after treatment with the same compound (see above). The cell viability was measured (incorporation of NR) at a time of 24±2 h and 48±2 h after the irradiation, in the absence and the presence of UVA/UVB irradiation and/or treatment with the compound of the invention G01. The cell viability values for each condition tested were compared with the value obtained from the control and plotted on a graph to highlight any differences between the various experimental conditions.

NHKs cells [4] = assay: ELISA CPDs determination after UVB irradiation and subsequent treatment with G01; assay type: cell-based, human; settings: post-treatment 90 μM; UVB 25 mJ/cm^2; 6 h and 24 h
Protocol: The NHKs cells were plated in the specific culture medium and maintained in culture for 24±2 h to allow adhesion to the plate. Then, the plates identified as +UVB and +G01/UVB were respectively exposed, in the irradiation medium, to a UVB dose of 25 mJ/cm^2, while the control plates (Ctr) and those treated only with the compound under examination (G01) were maintained in the dark and at room temperature for a period of time equal to the irradiation time. The irradiation medium was then replaced with the culture medium containing the compound G01, in a concentration of 90 μM. Based on the preliminary results obtained on a broader time range, post-treatment times of 6 h and 24 h were selected, after which the plates were processed according to the procedure described in the work instruction specific for the DNA extraction. The CPDs determination was performed using a specific ELISA kit following the procedure described in the user manual.

NHKs cells [5] = assay: Immunofluorescence of phosphorylated histone γH2AX after UVA or UVB irradiation and subsequent treatment with G01; assay type: cell-based, human; settings: post-treatment 90 μM; UVA 10 J/cm^2 or UVB 25 mJ/cm^2; 24 h; vs cells only irradiated
Protocol: The NHKs cells were plated in the specific culture medium and maintained in culture for 24±2 h to allow adhesion to the plate. Subsequently, the plates identified as +UVA, +UVA/G01 post, UVB, and +UVB/G01 post were respectively exposed, in irradiation medium, to doses of UVA of 10 J/cm^2 or UVB of 25 mJ/cm^2. The irradiation medium was then replaced with the culture medium containing the compound of the invention G01, in a concentration of 90 μM. Based on preliminary results obtained on a broader time range, a post-treatment time of 24 h was selected, after which the plates were processed for the immunofluorescence determination of the protein expression of the phosphorylated histone γH2AX, whose expression is associated to the amount of DNA damage (double strand breaks). The protein expression of the phosphorylated histone γH2AX after treatment with the compound of the invention G01, or only after irradiation with UVA/UVB, was compared with the expression in the control cells.

NHKs cells [6] = assay: Western Blot time course of p53, phospho-p53 and GADD45a after UVB irradiation and subsequent treatment with G01; assay type: cell-based, human; settings: post-treatment 90 μM
Protocol: The NHKs cells were plated in the specific culture medium and maintained in culture for 24±2 h to allow adhesion to the plate. Subsequently, the plates identified as +UVB and +G01/UVB post were exposed, in the irradiation medium, to a UVB dose of 25. mJ/cm^2. The irradiation medium was then replaced with the culture medium containing the compound of the invention G01, in a concentration of 90 μM. Post-treatment times of 1-3-6-24 h were selected, after which the plates were processed for Western Blot protein determination. The protein expression of p53, phospho-p53, and GADD45a after UVB irradiation and post-treatment with the compound of the invention G01 was compared with the expression in the control cells (Ctr).

[7] = UVB 25 mJ/cm^2, shorter times of 1-3-6-24 h

For C/C=C/C=C/C=C/C(=O)O [G01, 2,4,6-trans-octatrienoic acid], the “cell viability (cellular toxicity) vs control” value [1] was “absence of cellular toxicity”, the “caspase 3 activation (protein expression of non-cleaved caspase 3)” value (NHKs cells [2]) was “reduce caspase 3 activation” and the “cell viability after UVA/UVB irradiation” value [3] was “significant protective action”. The “CPDs products (pyrimidine cyclobutane dimers)” value (NHKs cells [4]) was “promote the removal of CPDs products”, the “fraction of phosphorylated histone γH2AX” value (NHKs cells [5]) was “significant reduction” and the “expression of the markers of DNA damage” value (NHKs cells [6]; 24 h after UVB irradiation 25 mJ/cm^2) was “decrease in the expression”. The “levels of GADD45a” value (NHKs cells [6]; [7]) was “acceleration of the increase”, the “levels of p53” value (NHKs cells [6]; [7]) was “acceleration of the increase” and the “levels of phospho-p53” value (NHKs cells [6]; [7]) was “acceleration of the increase”.
